Laboratory results published in US6653529B2, “Use of the maize X112 mutant ahas 2 gene and imidazolinone herbicides for selection of transgenic monocots, maize, rice and wheat plants resistant to the imidazolinone herbicides” (BASF Aktiengesellschaft, priority 2000, dated 2003).
Values joined by “and” are separate entries in the source; they are usually repeats but may differ in a detail not shown here. Identical values can stand only once.

Experiments:
Format in all cases: in vivo
transgenic rice Line 26 = test: Response of rice plants to various herbicides, seed set in greenhouse; conditions: post-emergence, 1× g ai/ha: PURSUIT 62.5, CADRE 32, ARSENAL 24, RAPTOR 32, SCEPTER 125, ACCENT 35, CLASSIC 5, AC322,140 20, LONDAX 68
Procedure, shortened: (§1)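 Greenhouse flats, 10 plants per cell; 9 herbicides (imidazolinones, rice herbicides, nicosulfuron, chlorimuron-ethyl) sprayed pre- or post-emergence at 1, 2, 4 and 6× rates, three replications. Fresh weight taken 32 days (pre) or 29 days (post, 5 plants/cell) after spraying; remaining plants grown to maturity for percentage filled-seed set.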

transgenic rice Line 29 = test: as above; conditions: post-emergence, 1× g ai/ha: PURSUIT 62.5, CADRE 32, ARSENAL 24, RAPTOR 32, SCEPTER 125, ACCENT 35, CLASSIC 5, AC322,140 20, LONDAX 68
Procedure, shortened: as §1

[1] = tested on: untransformed Nt rice plants; test: as above; conditions: post-emergence, 1× g ai/ha: PURSUIT 62.5, CADRE 32, ARSENAL 24, RAPTOR 32, SCEPTER 125, ACCENT 35, CLASSIC 5, AC322,140 20, LONDAX 68
Procedure, shortened: as §1

[2] = tested on: 3395IR (homozygous XA17 imi-resistant corn line); test: Greenhouse spray test of corn lines with imidazolinone herbicides, injury score; conditions: for Score, individual plants (0 dead plants, 5 healthy plants with no injury): 16 days after treatment; for M.S.: score 0 (dead) to 5 (healthy), 16 days
Text: (§2) Grow one corn plant per pot (5×5 inch) in a 3×5 flat till three- to four-leaf stage (about 9 to 13 days depending on the weather). On the day of spraying, water the plants well and let excess water drip out. Spray plants on a belt-sprayer with the imidazolinone herbicides at desired rates. […] When temperature was too high, base water plants to prevent wilting. Closely observe the plants for the next two to three weeks. Symptoms of herbicide injury will be visible three days after spraying and susceptible plants will die within two to three weeks depending on temperature.
(§3) The plants were rated on a scale of 0-5 with 0 for dead plants and 5 for healthy plants with no or minimum injury.
(§4) Two transgenic hybrids BAa-4 and MAa-7 lines (see FIG. 5 for their pedigree), a non-transformed control line B×A (B73×A188), 8962IT (heterozygous XI12 imi-tolerant corn line), 8962 (wild type control) and 3395IR (homozygous XA17 imi-resistant corn line) (8962IT and 8962 were from ICI, now Garst Seed Company, Slater, Iowa 50244, and 3395IR was from Pioneer Hi-Bred International Inc, Iowa 50306-3453). Plants were sprayed with 4, 8, 16 or 20×PURSUIT® imazethapyr, ARSENAL® imazapyr, CADRE® imazameth or RAPTOR® imazamox. Plants were scored 0 to 5 (with 0 being dead plants, 5 being healthy plants with no injury) individually 16 days after herbicide treatments. […] For the four tested imidazolinones, transgenic plants could tolerate higher rates of ARSENAL® imazapyr, PURSUIT® imazethapyr, than CADRE® imazameth and RAPTOR® imazamox.

[3] = tested on: non-transformed control corn line BxA (B73×A188); test: as above; conditions: for Score, individual plants (0 dead plants, 5 healthy plants with no injury): 16 days after treatment; for M.S.: score 0 (dead) to 5 (healthy), 16 days
Text: as §2, §3, §4

[4] = tested on: transgenic corn hybrid BAa-4; test: as above; conditions: BAa-4; for Score, individual plants (0 dead plants, 5 healthy plants with no injury): 16 days after treatment; for M.S.: score 0 (dead) to 5 (healthy), 16 days
Text: as §2, §3, §4

[5] = tested on: transgenic corn hybrid MAa-7; test: as above; conditions: MAa-7; for Score, individual plants (0 dead plants, 5 healthy plants with no injury): 16 days after treatment; for M.S.: score 0 (dead) to 5 (healthy), 16 days
Text: as §2, §3, §4

[6] = tested on: 8692 (wild type control corn line); test: as above; conditions: for Score, individual plants (0 dead plants, 5 healthy plants with no injury): 16 days after treatment; for M.S.: score 0 (dead) to 5 (healthy), 16 days
[7] = tested on: 8692IT (heterozygous XI12 imi-tolerant corn line); test: as above; conditions: for Score, individual plants (0 dead plants, 5 healthy plants with no injury): 16 days after treatment; for M.S.: score 0 (dead) to 5 (healthy), 16 days
[8] = 4×: PURSUIT 250, RAPTOR 160, ARSENAL 96, CADRE 400 g/ha
[9] = 8×: PURSUIT 500, RAPTOR 320, ARSENAL 192, CADRE 800 g/ha

Structure (SMILES): CCc1cnc(C2=NC(C)(C(C)C)C(=O)N2)c(C(=O)O)c1 (stereo not drawn) [PURSUIT ®, imazethapyr]
- % seed-set (transgenic rice Line 26; 1× rate): 91%
- No. filled seeds/3 panicles (transgenic rice Line 26; 1× rate): 143
- Total No. of kernels/3 panicles (transgenic rice Line 26; 1× rate): 157
- % seed-set (transgenic rice Line 26; 2× rate): 86%
- No. filled seeds/3 panicles (transgenic rice Line 26; 2× rate): 133
- Total No. of kernels/3 panicles (transgenic rice Line 26; 2× rate): 155
- % seed-set (transgenic rice Line 26; 4× rate): 89%
- No. filled seeds/3 panicles (transgenic rice Line 26; 4× rate): 152
- Total No. of kernels/3 panicles (transgenic rice Line 26; 4× rate): 172
- % seed-set (transgenic rice Line 26; 6× rate): 77%
- No. filled seeds/3 panicles (transgenic rice Line 26; 6× rate): 107
- Total No. of kernels/3 panicles (transgenic rice Line 26; 6× rate): 138
- % seed-set (transgenic rice Line 29; 1× rate): 85%
- No. filled seeds/3 panicles (transgenic rice Line 29; 1× rate): 125
- Total No. of kernels/3 panicles (transgenic rice Line 29; 1× rate): 146
- % seed-set (transgenic rice Line 29; 2× rate): 88%
- No. filled seeds/3 panicles (transgenic rice Line 29; 2× rate): 136
- Total No. of kernels/3 panicles (transgenic rice Line 29; 2× rate): 155
- % seed-set (transgenic rice Line 29; 4× rate): 88%
- No. filled seeds/3 panicles (transgenic rice Line 29; 4× rate): 138
- Total No. of kernels/3 panicles (transgenic rice Line 29; 4× rate): 156
- % seed-set (transgenic rice Line 29; 6× rate): 87%
- No. filled seeds/3 panicles (transgenic rice Line 29; 6× rate): 141
- Total No. of kernels/3 panicles (transgenic rice Line 29; 6× rate): 160
- % seed-set ([1]; 1× rate): 35%
- No. filled seeds/3 panicles ([1]; 1× rate): 38
- Total No. of kernels/3 panicles ([1]; 1× rate): 47
- % seed-set ([1]; 2× rate): 0%
- No. filled seeds/3 panicles ([1]; 2× rate): 0
- Total No. of kernels/3 panicles ([1]; 2× rate): 0
- % seed-set ([1]; 4× rate): 10%
- No. filled seeds/3 panicles ([1]; 4× rate): 19
- Total No. of kernels/3 panicles ([1]; 4× rate): 21
- % seed-set ([1]; 6× rate): 0%
- No. filled seeds/3 panicles ([1]; 6× rate): 0
- Total No. of kernels/3 panicles ([1]; 6× rate): 0
- Score, individual plants (0 dead plants, 5 healthy plants with no injury) [2, 8]: 5
- M.S. [2, 8]: 5
- Score, individual plants (0 dead plants, 5 healthy plants with no injury) [2, 9]: 5
- M.S. [2, 9]: 5
- Score, individual plants (0 dead plants, 5 healthy plants with no injury) ([2]; 20×: PURSUIT 1.25 kg/ha): 5
- M.S. ([2]; 20×: PURSUIT 1.25 kg/ha): 5
- Score, individual plants (0 dead plants, 5 healthy plants with no injury) [3, 8]: 0
- M.S. [3, 8]: 0
- Score, individual plants (0 dead plants, 5 healthy plants with no injury) [3, 9]: 0
- M.S. [3, 9]: 0
- Score, individual plants (0 dead plants, 5 healthy plants with no injury) ([3]; 20×: PURSUIT 1.25 kg/ha): 0
- M.S. ([3]; 20×: PURSUIT 1.25 kg/ha): 0
- Score, individual plants (0 dead plants, 5 healthy plants with no injury) [4, 8]: 5
- M.S. [4, 8]: 5
- Score, individual plants (0 dead plants, 5 healthy plants with no injury) [4, 9]: 5
- M.S. [4, 9]: 5
- Score, individual plants (0 dead plants, 5 healthy plants with no injury) ([4]; 20×: PURSUIT 1.25 kg/ha): 4 (3×) and 3 and 2
- M.S. ([4]; 20×: PURSUIT 1.25 kg/ha): 3.4
- Score, individual plants (0 dead plants, 5 healthy plants with no injury) [5, 8]: 5
- M.S. [5, 8]: 5
- Score, individual plants (0 dead plants, 5 healthy plants with no injury) [5, 9]: 5
- M.S. [5, 9]: 5
- Score, individual plants (0 dead plants, 5 healthy plants with no injury) ([5]; 20×: PURSUIT 1.25 kg/ha): 0 and 3 and 2 (2×) and 4
- M.S. ([5]; 20×: PURSUIT 1.25 kg/ha): 2.2
- Score, individual plants (0 dead plants, 5 healthy plants with no injury) [6, 8]: 2 (3×) and 1 (2×)
- M.S. [6, 8]: 1.6
- Score, individual plants (0 dead plants, 5 healthy plants with no injury) [6, 9]: 0
- M.S. [6, 9]: 0
- Score, individual plants (0 dead plants, 5 healthy plants with no injury) ([6]; 20×: PURSUIT 1.25 kg/ha): 0
- M.S. ([6]; 20×: PURSUIT 1.25 kg/ha): 0
- Score, individual plants (0 dead plants, 5 healthy plants with no injury) [7, 8]: 5
- M.S. [7, 8]: 5
- Score, individual plants (0 dead plants, 5 healthy plants with no injury) [7, 9]: 5 (4×) and 4
- M.S. [7, 9]: 4.8
- Score, individual plants (0 dead plants, 5 healthy plants with no injury) ([7]; 20×: PURSUIT 1.25 kg/ha): 4 (4×) and 3
- M.S. ([7]; 20×: PURSUIT 1.25 kg/ha): 3.8
